What is called IC50 is the midpoint of a concentration-inhibition curve.

Common to all, as to format: biochemical
The target in one assay is T1, PI3Kγ (Homo sapiens, UniProt P48736).
T1 construct: made in house
Description: TR-FRET enzymatic activity assay, PI3Kγ. The conditions noted are these: recombinant heterodimeric PI3Kγ 2 nM, 2× Km ATP, 30 minutes at 25°C. In a few lines:
(§1)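 Compounds were profiled per isoform in a biochemical kinase reaction, with activity detected by time-resolved fluorescence resonance energy transfer.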
On the technique in general: TR-FRET usually uses a lanthanide donor and a delayed reading to cut background.

In the next assay the target is T2, PI3Kδ (Homo sapiens, UniProt O00329).
T2 construct: made in house
T2 sequence (O00329 whole entry): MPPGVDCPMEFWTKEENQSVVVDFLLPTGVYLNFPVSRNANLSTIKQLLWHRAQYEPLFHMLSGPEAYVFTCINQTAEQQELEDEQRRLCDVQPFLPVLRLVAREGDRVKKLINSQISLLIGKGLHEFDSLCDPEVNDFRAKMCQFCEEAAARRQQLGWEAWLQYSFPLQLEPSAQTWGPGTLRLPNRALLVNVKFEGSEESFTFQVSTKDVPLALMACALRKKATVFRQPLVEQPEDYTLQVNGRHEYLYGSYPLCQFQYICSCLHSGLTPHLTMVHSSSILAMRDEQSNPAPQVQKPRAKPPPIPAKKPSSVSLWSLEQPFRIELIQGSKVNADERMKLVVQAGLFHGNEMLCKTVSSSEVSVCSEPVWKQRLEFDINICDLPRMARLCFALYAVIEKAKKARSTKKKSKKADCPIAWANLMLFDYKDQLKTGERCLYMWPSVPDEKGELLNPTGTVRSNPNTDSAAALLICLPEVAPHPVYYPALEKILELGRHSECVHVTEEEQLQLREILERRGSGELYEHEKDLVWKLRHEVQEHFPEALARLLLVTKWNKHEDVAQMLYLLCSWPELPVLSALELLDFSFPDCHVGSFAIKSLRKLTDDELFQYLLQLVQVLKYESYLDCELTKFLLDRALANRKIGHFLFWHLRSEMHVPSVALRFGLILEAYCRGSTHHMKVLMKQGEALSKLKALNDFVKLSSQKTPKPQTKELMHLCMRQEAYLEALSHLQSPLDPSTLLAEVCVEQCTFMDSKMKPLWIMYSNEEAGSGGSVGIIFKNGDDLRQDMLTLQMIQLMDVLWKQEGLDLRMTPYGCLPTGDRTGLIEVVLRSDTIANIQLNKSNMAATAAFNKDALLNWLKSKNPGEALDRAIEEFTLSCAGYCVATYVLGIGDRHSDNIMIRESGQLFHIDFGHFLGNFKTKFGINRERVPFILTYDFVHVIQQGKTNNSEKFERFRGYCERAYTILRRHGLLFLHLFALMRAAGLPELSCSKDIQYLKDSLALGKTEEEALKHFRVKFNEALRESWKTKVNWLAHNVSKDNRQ
T2 sequence (P27986 whole entry partner): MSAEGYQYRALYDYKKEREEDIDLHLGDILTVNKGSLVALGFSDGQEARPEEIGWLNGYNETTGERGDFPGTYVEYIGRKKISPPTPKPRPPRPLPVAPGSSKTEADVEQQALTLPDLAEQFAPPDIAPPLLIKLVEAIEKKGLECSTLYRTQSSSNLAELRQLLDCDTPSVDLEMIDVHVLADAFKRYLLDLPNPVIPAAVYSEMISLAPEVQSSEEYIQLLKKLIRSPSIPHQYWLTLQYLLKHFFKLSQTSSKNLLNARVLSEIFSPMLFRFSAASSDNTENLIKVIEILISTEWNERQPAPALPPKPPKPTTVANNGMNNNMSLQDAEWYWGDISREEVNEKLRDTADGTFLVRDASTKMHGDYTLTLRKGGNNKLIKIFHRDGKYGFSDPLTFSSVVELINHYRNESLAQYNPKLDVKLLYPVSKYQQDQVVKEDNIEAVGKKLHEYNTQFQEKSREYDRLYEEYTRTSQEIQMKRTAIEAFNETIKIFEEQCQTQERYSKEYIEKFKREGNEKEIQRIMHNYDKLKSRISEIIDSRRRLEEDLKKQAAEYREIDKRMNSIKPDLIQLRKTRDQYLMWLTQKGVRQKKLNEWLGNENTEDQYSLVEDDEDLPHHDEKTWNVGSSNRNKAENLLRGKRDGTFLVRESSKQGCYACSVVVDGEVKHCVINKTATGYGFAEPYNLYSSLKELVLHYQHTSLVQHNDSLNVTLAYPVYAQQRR
Description: TR-FRET enzymatic activity assay, PI3Kδ. The conditions noted are these: recombinant heterodimeric PI3Kδ 25-50 pM, 2× Km ATP, 30 minutes at 25°C. In a few lines: as §1

Another assay has as its target T3, PI3Kβ (Homo sapiens, UniProt P42338).
T3 construct: made in house
Description: TR-FRET enzymatic activity assay, PI3Kβ. The conditions noted are these: recombinant heterodimeric PI3Kβ 25-50 pM, 2× Km ATP, 30 minutes at 25°C. The essentials: as §1

T1 sequence (P48736 whole entry): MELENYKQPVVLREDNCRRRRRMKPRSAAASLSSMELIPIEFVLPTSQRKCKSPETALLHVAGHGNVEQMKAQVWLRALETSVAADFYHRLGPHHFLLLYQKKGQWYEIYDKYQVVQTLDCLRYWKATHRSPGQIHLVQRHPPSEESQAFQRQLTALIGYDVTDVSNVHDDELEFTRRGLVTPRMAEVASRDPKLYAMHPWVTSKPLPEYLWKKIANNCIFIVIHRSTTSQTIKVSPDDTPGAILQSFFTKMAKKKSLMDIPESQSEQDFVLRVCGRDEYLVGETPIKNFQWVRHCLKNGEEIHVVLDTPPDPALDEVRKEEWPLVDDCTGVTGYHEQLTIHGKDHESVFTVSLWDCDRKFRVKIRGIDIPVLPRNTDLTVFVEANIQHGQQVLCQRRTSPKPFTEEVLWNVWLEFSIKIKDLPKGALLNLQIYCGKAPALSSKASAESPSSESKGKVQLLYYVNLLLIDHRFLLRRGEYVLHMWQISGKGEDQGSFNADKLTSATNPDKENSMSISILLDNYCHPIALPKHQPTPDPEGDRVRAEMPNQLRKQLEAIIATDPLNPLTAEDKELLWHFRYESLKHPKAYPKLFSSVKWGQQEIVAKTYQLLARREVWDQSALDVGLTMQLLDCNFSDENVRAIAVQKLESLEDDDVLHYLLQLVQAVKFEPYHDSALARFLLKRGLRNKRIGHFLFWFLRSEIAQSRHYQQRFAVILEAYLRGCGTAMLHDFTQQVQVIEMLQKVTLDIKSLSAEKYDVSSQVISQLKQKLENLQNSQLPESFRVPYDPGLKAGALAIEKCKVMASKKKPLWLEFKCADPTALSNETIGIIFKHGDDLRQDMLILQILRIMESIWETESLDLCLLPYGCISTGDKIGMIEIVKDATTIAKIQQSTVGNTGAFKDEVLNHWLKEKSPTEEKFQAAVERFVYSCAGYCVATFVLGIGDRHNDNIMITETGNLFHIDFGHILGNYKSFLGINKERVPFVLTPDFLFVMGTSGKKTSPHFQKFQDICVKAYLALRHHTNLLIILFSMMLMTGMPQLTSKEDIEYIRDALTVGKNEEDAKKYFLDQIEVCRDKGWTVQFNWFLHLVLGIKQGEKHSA
T1 sequence (Q8WYR1 whole entry partner): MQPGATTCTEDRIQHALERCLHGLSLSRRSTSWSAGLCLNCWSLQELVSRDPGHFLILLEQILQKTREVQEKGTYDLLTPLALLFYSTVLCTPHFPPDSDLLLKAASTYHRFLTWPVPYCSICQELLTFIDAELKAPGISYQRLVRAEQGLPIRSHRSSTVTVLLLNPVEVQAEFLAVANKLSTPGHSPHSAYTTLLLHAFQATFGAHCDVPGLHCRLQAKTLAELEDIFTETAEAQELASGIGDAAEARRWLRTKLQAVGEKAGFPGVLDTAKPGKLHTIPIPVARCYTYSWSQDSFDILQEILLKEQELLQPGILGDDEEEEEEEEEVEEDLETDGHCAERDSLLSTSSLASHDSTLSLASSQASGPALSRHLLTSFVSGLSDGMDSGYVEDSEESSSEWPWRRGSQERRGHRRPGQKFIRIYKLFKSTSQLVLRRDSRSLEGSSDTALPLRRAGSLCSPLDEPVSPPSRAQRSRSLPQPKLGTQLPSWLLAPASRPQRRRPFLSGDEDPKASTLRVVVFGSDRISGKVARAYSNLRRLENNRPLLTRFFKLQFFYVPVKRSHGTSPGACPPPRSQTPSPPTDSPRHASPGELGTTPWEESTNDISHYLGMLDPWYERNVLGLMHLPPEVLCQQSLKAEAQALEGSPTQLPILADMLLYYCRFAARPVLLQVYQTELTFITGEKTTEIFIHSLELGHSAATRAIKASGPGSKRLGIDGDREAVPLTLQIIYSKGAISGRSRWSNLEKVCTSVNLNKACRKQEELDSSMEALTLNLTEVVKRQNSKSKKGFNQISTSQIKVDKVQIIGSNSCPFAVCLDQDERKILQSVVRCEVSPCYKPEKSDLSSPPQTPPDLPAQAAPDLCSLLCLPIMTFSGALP
T3 sequence (P42338 whole entry): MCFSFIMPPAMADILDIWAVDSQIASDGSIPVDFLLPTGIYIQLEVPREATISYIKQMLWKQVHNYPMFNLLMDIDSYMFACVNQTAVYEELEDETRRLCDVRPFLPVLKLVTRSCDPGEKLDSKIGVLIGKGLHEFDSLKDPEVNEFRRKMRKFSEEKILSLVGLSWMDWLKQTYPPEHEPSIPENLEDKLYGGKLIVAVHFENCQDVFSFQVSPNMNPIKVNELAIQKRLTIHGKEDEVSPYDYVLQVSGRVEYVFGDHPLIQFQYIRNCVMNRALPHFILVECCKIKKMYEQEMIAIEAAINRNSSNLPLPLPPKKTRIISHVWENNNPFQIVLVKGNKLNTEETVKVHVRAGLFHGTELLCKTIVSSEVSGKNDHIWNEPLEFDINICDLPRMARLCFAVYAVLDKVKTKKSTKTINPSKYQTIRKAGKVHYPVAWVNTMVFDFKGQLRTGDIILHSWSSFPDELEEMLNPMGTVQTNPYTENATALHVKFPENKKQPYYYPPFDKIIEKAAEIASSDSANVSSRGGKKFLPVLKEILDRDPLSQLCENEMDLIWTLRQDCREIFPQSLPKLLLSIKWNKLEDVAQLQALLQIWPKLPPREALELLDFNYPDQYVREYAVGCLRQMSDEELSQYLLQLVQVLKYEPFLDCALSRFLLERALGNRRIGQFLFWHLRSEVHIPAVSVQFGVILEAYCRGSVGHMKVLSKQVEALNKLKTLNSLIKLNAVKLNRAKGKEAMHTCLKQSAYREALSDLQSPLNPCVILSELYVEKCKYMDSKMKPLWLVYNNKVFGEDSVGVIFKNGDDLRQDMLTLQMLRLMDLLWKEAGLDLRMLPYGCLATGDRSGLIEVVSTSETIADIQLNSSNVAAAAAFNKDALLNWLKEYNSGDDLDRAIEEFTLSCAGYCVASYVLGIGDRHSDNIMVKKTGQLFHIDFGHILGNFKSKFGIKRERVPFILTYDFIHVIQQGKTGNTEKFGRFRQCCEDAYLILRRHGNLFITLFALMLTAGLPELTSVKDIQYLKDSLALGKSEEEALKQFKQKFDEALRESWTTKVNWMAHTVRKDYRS
T3 sequence (P27986 whole entry partner): as the sequence (P27986 whole entry partner) above

Regarding `C[C@H](Nc1nc(N)nc(N)c1C#N)c1nc2cccc(Cl)c2c(=O)n1C1CNC1` [Compound 29, (S)-2,4-diamino-6-((1-(3-(azetidin-3-yl)-5-chloro-4-oxo-3,4-dihydroquinazolin-2-yl)ethyl)amino)pyrimidine-5-carbonitrile], the figures for the IC50 at PI3Kγ, on PI3Kδ and on PI3Kβ were 3100 nM, 31 nM and 91 nM, respectively.

Regarding `C[C@H](Nc1ncnc2[nH]cc(Br)c12)c1nc2cccc(Cl)c2c(=O)n1N1CCNCC1` [Compound 69, (S)-2-(1-((5-bromo-7H-pyrrolo[2,3-d]pyrimidin-4-yl)amino)ethyl)-5-chloro-3-(piperazin-1-yl)quinazolin-4(3H)-one], the IC50 came out at 7400 nM at PI3Kγ, 1 nM on PI3Kδ and 3 nM at PI3Kβ.

In the case of `C[C@H](Nc1ncnc2scnc12)c1nc2c(Cl)ccc(Cl)c2c(=O)n1N1CCNCC1` [Compound 49, (S)-5,8-dichloro-3-(piperazin-1-yl)-2-(1-(thiazolo[5,4-d]pyrimidin-7-ylamino)ethyl)quinazolin-4(3H)-one], the IC50 on PI3Kγ was above 10000 nM; at PI3Kδ, 2 nM; at PI3Kβ, 19 nM.

Take `C[C@H](Nc1ncnn2ccnc12)c1nc2cccc(Cl)c2c(=O)n1C1CCCNCC1` (stereo partly drawn) [Compound 82, 3-(azepan-4-yl)-5-chloro-2-((S)-1-(imidazo[2,1-f][1,2,4]triazin-4-ylamino)ethyl)quinazolin-4(3H)-one]: the IC50 on PI3Kγ is above 10000 nM; on PI3Kδ it was 22 nM; on PI3Kβ, 480 nM.

On to `C[C@H](Nc1ncnn2ccnc12)c1nc2cccc(Cl)c2c(=O)n1N1CCCNCC1` [Compound 64, (S)-5-chloro-3-(1,4-diazepan-1-yl)-2-(1-(imidazo[2,1-f][1,2,4]triazin-4-ylamino)ethyl)quinazolin-4(3H)-one], for which the half-maximal inhibitory concentration (IC50) on PI3Kγ was above 10000 nM; on PI3Kδ it was 9 nM; at PI3Kβ it was 94 nM.

Turning to `C[C@H](Nc1ncnc(N)c1C#N)c1nc2cccc(Cl)c2c(=O)n1C1CCN(CC(F)F)CC1` [Compound 105, (S)-4-amino-6-((1-(5-chloro-3-(1-(2,2-difluoroethyl)piperidin-4-yl)-4-oxo-3,4-dihydroquinazolin-2-yl)ethyl)amino)pyrimidine-5-carbonitrile], the figures for the IC50 on PI3Kγ, on PI3Kδ and on PI3Kβ were above 10000 nM, 9 nM and 1900 nM, respectively.

For the molecule `C[C@H](Nc1ncnc2ccc(Cl)nc12)c1nc2cccc(Cl)c2c(=O)n1N1CCNCC1` [Compound 71, (S)-5-chloro-2-(1-((6-chloropyrido[3,2-d]pyrimidin-4-yl)amino)ethyl)-3-(piperazin-1-yl)quinazolin-4(3H)-one], the IC50 on PI3Kγ is 3200 nM; at PI3Kδ, 2 nM; on PI3Kβ, 3 nM.

Turning to `C[C@H](Nc1ncnc2cccnc12)c1nc2cccc(Cl)c2c(=O)n1N1CCNCC1` [Compound 73, (S)-5-chloro-3-(piperazin-1-yl)-2-(1-(pyrido[3,2-d]pyrimidin-4-ylamino)ethyl)quinazolin-4(3H)-one], the IC50 is above 10000 nM on PI3Kγ, 8 nM at PI3Kδ and 19 nM at PI3Kβ.

As for `CN1CCN(n2c([C@@H](Nc3nc(N)nc(N)c3Cl)C3CC3)nc3cccc(Cl)c3c2=O)CC1` [Compound 2, (S)-5-chloro-2-(cyclopropyl((2,6-diamino-5-chloropyrimidin-4-yl)amino)methyl)-3-(4-methylpiperazin-1-yl)quinazolin-4(3H)-one], the IC50 at PI3Kγ was above 10000 nM; on PI3Kδ, 260 nM; on PI3Kβ, 950 nM.

For `CCN1CCC(n2c([C@H](C)Nc3ncnc4[nH]cnc34)nc3cccc(Cl)c3c2=O)C1` (stereo partly drawn) [Compound 135, 2-((S)-1-((9H-purin-6-yl)amino)ethyl)-5-chloro-3-(1-ethylpyrrolidin-3-yl)quinazolin-4(3H)-one], the IC50 on PI3Kγ was above 10000 nM; on PI3Kδ, 70 nM; at PI3Kβ, 4700 nM.

Consider `C[C@H](Nc1nc(N)nc(N)c1C#N)c1nc2cccc(Cl)c2c(=O)n1C1CCN(CC(F)(F)F)C1` (stereo partly drawn) [Compound 119, 2,4-diamino-6-(((1S)-1-(5-chloro-4-oxo-3-(1-(2,2,2-trifluoroethyl)pyrrolidin-3-yl)-3,4-dihydroquinazolin-2-yl)ethyl)amino)pyrimidine-5-carbonitrile], for which the IC50 at PI3Kγ turned out to be 2900 nM; at PI3Kδ it was 14 nM; at PI3Kβ, 360 nM.

`C[C@H](Nc1ncnc(N)c1C#N)c1nc2cccc(Cl)c2c(=O)n1N1CCNC(C(F)(F)F)C1` (stereo partly drawn) [Compound 62, 4-amino-6-(((1S)-1-(5-chloro-4-oxo-3-(3-(trifluoromethyl)piperazin-1-yl)-3,4-dihydroquinazolin-2-yl)ethyl)amino)pyrimidine-5-carbonitrile]: the values for the IC50 at PI3Kγ, at PI3Kδ and at PI3Kβ were 8400 nM, 9 nM and 820 nM, respectively.

As to `C[C@H](Nc1ncnn2ccnc12)c1nc2c(F)ccc(F)c2c(=O)n1N1CCNCC1` [Compound 40, (S)-5,8-difluoro-2-(1-(imidazo[2,1-f][1,2,4]triazin-4-ylamino)ethyl)-3-(piperazin-1-yl)quinazolin-4(3H)-one], the IC50 on PI3Kγ was above 10000 nM; at PI3Kδ, 26 nM; at PI3Kβ, 200 nM.

`CC[C@H](Nc1nc(N)nc(N)c1C#N)c1nc2cccc(Cl)c2c(=O)n1C1CCNCC1` [Compound 22, (S)-2,4-diamino-6-((1-(5-chloro-4-oxo-3-(piperidin-4-yl)-3,4-dihydroquinazolin-2-yl)propyl)amino)pyrimidine-5-carbonitrile]: the IC50 on PI3Kγ is above 10000 nM; on PI3Kδ, 5 nM; on PI3Kβ it was 15 nM.

For `C[C@H](Nc1nc(N)nc(Cl)c1C#N)c1nc2cccc(Cl)c2c(=O)n1C1CCNCC1` [Compound 128, (S)-2-Amino-4-chloro-6-((1-(5-chloro-4-oxo-3-(piperidin-4-yl)-3,4-dihydroquinazolin-2-yl)ethyl)amino)pyrimidine-5-carbonitrile], the IC50 on PI3Kγ is above 10000 nM; at PI3Kδ, 14 nM; on PI3Kβ it was 10 nM.

For the molecule `Cc1nc(N)c(C(=O)N[C@@H](C)c2nc3cccc(Cl)c3c(=O)n2N2CCNCC2)nc1C` [Compound 59, (S)-3-amino-N-(1-(5-chloro-4-oxo-3-(piperazin-1-yl)-3,4-dihydroquinazolin-2-yl)ethyl)-5,6-dimethylpyrazine-2-carboxamide], the IC50 on PI3Kγ was above 10000 nM; at PI3Kδ, 280 nM; at PI3Kβ it was 73 nM.

In the case of `C[C@H](NC(=O)c1nc(Cl)cnc1N)c1nc2cccc(Cl)c2c(=O)n1N1CCNCC1` [Compound 32, (S)-3-amino-6-chloro-N-(1-(5-chloro-4-oxo-3-(piperazin-1-yl)-3,4-dihydroquinazolin-2-yl)ethyl)pyrazine-2-carboxamide], the half-inhibitory concentration (IC50) on PI3Kγ is above 10000 nM; on PI3Kδ, 150 nM; on PI3Kβ, 32 nM.

On to `Cc1nc(N)nc(N[C@@H](C)c2nc3cccc(Cl)c3c(=O)n2C2CCN(CC(F)(F)F)CC2)c1C#N` [Compound 106, (S)-2-amino-4-((1-(5-chloro-4-oxo-3-(1-(2,2,2-trifluoroethyl)piperidin-4-yl)-3,4-dihydroquinazolin-2-yl)ethyl)amino)-6-methylpyrimidine-5-carbonitrile], for which the 50% inhibitory concentration (IC50) at PI3Kγ came to 710 nM; at PI3Kδ it was 11 nM; on PI3Kβ it was 260 nM.

As for `Cc1nc(N)nc(N[C@@H](C)c2nc3c(F)ccc(Cl)c3c(=O)n2C2[C@H]3CNC[C@@H]23)c1C#N` (stereo in doubt) [Compound 16, 4-(((1S)-1-(3-((1R,5S)-3-azabicyclo[3.1.0]hexan-6-yl)-5-chloro-8-fluoro-4-oxo-3,4-dihydroquinazolin-2-yl)ethyl)amino)-2-amino-6-methylpyrimidine-5-carbonitrile], the results for the IC50 on PI3Kγ, on PI3Kδ and on PI3Kβ were 2600 nM, 6 nM and 2 nM, respectively.

`C[C@H](Nc1ncnc(N)c1C#N)c1nc2cccc(Cl)c2c(=O)n1N1CCNCC1` [Compound 55, (S)-4-amino-6-((1-(5-chloro-4-oxo-3-(piperazin-1-yl)-3,4-dihydroquinazolin-2-yl)ethyl)amino)pyrimidine-5-carbonitrile]: the IC50 at PI3Kγ is above 10000 nM; on PI3Kδ, 1 nM; on PI3Kβ, 14 nM.

Regarding `C[C@H](Nc1nc(N)nc(N)c1C#N)c1nc2cccc(Cl)c2c(=O)n1[C@@H]1CCNC1` [Compound 31, 2,4-diamino-6-(((S)-1-(5-chloro-4-oxo-3-((R)-pyrrolidin-3-yl)-3,4-dihydroquinazolin-2-yl)ethyl)amino)pyrimidine-5-carbonitrile], the concentration for half-maximal inhibition (IC50) on PI3Kγ is above 10000 nM; at PI3Kδ, 19 nM; at PI3Kβ, 78 nM.

Regarding `C[C@H](Nc1nc(N)nc(N)c1Cl)c1nc2cccc(Cl)c2c(=O)n1N1CCNCC1` [Compound 72, (S)-5-chloro-2-(1-((2,6-diamino-5-chloropyrimidin-4-yl)amino)ethyl)-3-(piperazin-1-yl)quinazolin-4(3H)-one], the values for the IC50 on PI3Kγ, at PI3Kδ and on PI3Kβ were above 10000 nM, 11 nM and 28 nM, respectively.

For the molecule `O=c1c2c(Cl)cccc2nc([C@@H](Nc2ncnc3scnc23)C2CC2)n1N1CCNCC1` [Compound 78, (S)-5-chloro-2-(cyclopropyl(thiazolo[5,4-d]pyrimidin-7-ylamino)methyl)-3-(piperazin-1-yl)quinazolin-4(3H)-one], the IC50 on PI3Kγ is above 10000 nM; at PI3Kδ it was 2 nM; on PI3Kβ it was 18 nM.

As to `N#Cc1c(N)nc(N)nc1N[C@H](c1nc2c(Cl)ccc(Cl)c2c(=O)n1C1CCC1)C1CC1` [Compound 138, (S)-2,4-diamino-6-((cyclopropyl(5,8-dichloro-3-cyclobutyl-4-oxo-3,4-dihydroquinazolin-2-yl)methyl)amino)pyrimidine-5-carbonitrile], the IC50 came to 524 nM on PI3Kγ, 1 nM at PI3Kδ and 58 nM on PI3Kβ.

These data come from patent EP3154958B1, “PHOSPHATIDYLINOSITOL 3-KINASE INHIBITORS” (Gilead Sciences, Inc., priority 2014, dated 2015).
